From ChEMBL document CHEMBL4699440, “Comprehensive review on the anti-bacterial activity of 1,2,3-triazole hybrids” (Eur J Med Chem, 2019)
Values after ≈ are worked out from the molar mass of the structure shown.

Columns and labels:
Format in all cases: functional
[1] = test system: Streptococcus pyogenes; test: Antibacterial activity against Streptococcus pyogenes ATCC 35552 incubated for 24 hrs by tube dilution method
[2] = test system: Staphylococcus aureus; test: Antibacterial activity against Staphylococcus aureus ATCC 25923 incubated for 24 hrs by tube dilution method
[3] = test system: Klebsiella pneumoniae; test: Antibacterial activity against Klebsiella pneumoniae ATCC 15380 incubated for 24 hrs by tube dilution method
[4] = test system: Pseudomonas aeruginosa; test: Antibacterial activity against Pseudomonas aeruginosa ATCC 12454 incubated for 24 hrs by tube dilution method
[5] = test system: Escherichia coli; test: Antibacterial activity against Escherichia coli ATCC 25922 incubated for 24 hrs by tube dilution method
[6] = test system: Bacillus cereus; test: Antibacterial activity against Bacillus cereus ATCC 6630 incubated for 24 hrs
[7] = test system: Pseudomonas fluorescens; test: Antibacterial activity against Pseudomonas fluorescens NCIM 2173 incubated for 24 hrs
[8] = test system: Penicillium chrysogenum; test: Antifungal activity against Penicillium chrysogenum NCIM 723 incubated for 48 hrs
[9] = test system: Aspergillus niger; test: Antifungal activity against Aspergillus niger NCIM 1196 incubated for 48 hrs
[10] = test system: Sphingomonas paucimobilis; test: Antibacterial activity against Flavobacterium devorans ATCC 10829 incubated for 24 hrs
[11] = test system: Curvularia lunata; test: Antifungal activity against Curvularia lunata NCIM 1131 incubated for 48 hrs
[12] = test system: Staphylococcus aureus; test: Antibacterial activity against Staphylococcus aureus ATCC 29737 incubated for 24 hrs
[13] = test system: Micrococcus luteus; test: Antibacterial activity against Micrococcus Luteus ATCC 398 incubated for 24 hrs
[14] = test system: Escherichia coli; test: Antibacterial activity against Escherichia coli NCIM 2256 incubated for 24 hrs
[15] = test system: Bacillus cereus; test: Antibacterial activity against Bacillus cereus by agar dilution method
[16] = test system: Staphylococcus aureus; test: Antibacterial activity against Staphylococcus aureus by agar dilution method
[17] = test system: Escherichia coli; test: Antibacterial activity against Escherichia coli by agar dilution method
[18] = test system: Pseudomonas aeruginosa; test: Antibacterial activity against Pseudomonas aeruginosa by agar dilution method

SMILES	MIC [1] [µg/mL]	MIC [2] [µg/mL]	MIC [3] [µg/mL]	MIC [4] [µg/mL]	MIC [5] [µg/mL]	MIC [15] [µg/mL]	MIC [16] [µg/mL]	MIC [17] [µg/mL]	MIC [18] [µg/mL]	further results
Cc1cc(C)cc(Cn2cc(COc3ccccc3-c3nn(-c4ccccc4)cc3C=O)nn2)c1	5.5 (≈ 11.9 µM)	5.5 (≈ 11.9 µM)	5.5 (≈ 11.9 µM)	5.5 (≈ 11.9 µM)	5.5 (≈ 11.9 µM)					
Cc1cc(OCc2cn(Cc3ccc(Br)cc3)nn2)cc2oc(=O)ccc12										MIC [6]: 2 µg/mL (≈ 4.69 µM); MIC [7]: 2 µg/mL (≈ 4.69 µM); MIC [8]: 2 µg/mL (≈ 4.69 µM); MIC [9]: 2 µg/mL (≈ 4.69 µM); MIC [10]: 2 µg/mL (≈ 4.69 µM); MIC [11]: 2 µg/mL (≈ 4.69 µM); MIC [12]: 2 µg/mL (≈ 4.69 µM); MIC [13]: 2 µg/mL (≈ 4.69 µM); MIC [14]: 2 µg/mL (≈ 4.69 µM)
O=Cc1cn(-c2ccccc2)nc1-c1ccccc1OCc1cn(Cc2ccccc2)nn1	5.5 (≈ 12.6 µM)	5.5 (≈ 12.6 µM)	5.5 (≈ 12.6 µM)	5.5 (≈ 12.6 µM)	5.5 (≈ 12.6 µM)					
O=C(N/N=C/c1cn(-c2ccccc2)nc1-c1cccs1)c1cccc(-n2cc(-c3ccccc3)nn2)c1						2 (≈ 3.88 µM)	2 (≈ 3.88 µM)	2 (≈ 3.88 µM)	2 (≈ 3.88 µM)	
O=Cc1cn(-c2ccccc2)nc1-c1cc(Cl)ccc1OCc1cn(Cc2ccccc2)nn1	5.5 (≈ 11.7 µM)	5.5 (≈ 11.7 µM)	5.5 (≈ 11.7 µM)	5.5 (≈ 11.7 µM)	5.5 (≈ 11.7 µM)					
O=C(N/N=C/c1cn(-c2ccccc2)nc1-c1ccc([N+](=O)[O-])cc1)c1cccc(-n2cc(-c3ccccc3)nn2)c1						2 (≈ 3.61 µM)	2 (≈ 3.61 µM)	2 (≈ 3.61 µM)	2 (≈ 3.61 µM)	
O=C(N/N=C/c1cn(-c2ccccc2)nc1-c1cccc(O)c1)c1cccc(-n2cc(-c3ccccc3)nn2)c1						2 (≈ 3.81 µM)	2 (≈ 3.81 µM)	2 (≈ 3.81 µM)	2 (≈ 3.81 µM)	
COc1ccc(-c2nn(-c3ccccc3)cc2/C=N/NC(=O)c2cccc(-n3cc(-c4ccccc4)nn3)c2)cc1OC						2 (≈ 3.51 µM)	2 (≈ 3.51 µM)	2 (≈ 3.51 µM)	2 (≈ 3.51 µM)	
O=C(N/N=C/c1cn(-c2ccccc2)nc1-c1ccc(F)cc1)c1cccc(-n2cc(-c3ccccc3)nn2)c1						2 (≈ 3.79 µM)	2 (≈ 3.79 µM)	2 (≈ 3.79 µM)	2 (≈ 3.79 µM)	
Clc1ccc(COC(Cn2ccnc2)c2ccc(Cl)cc2Cl)c(Cl)c1 (stereo not drawn) [MICONAZOLE]										MIC [8]: 16 µg/mL (≈ 38.4 µM); MIC [9]: 16 µg/mL (≈ 38.4 µM); MIC [11]: 16 µg/mL (≈ 38.4 µM)
COc1ccc(Cn2cc(COc3ccccc3-c3nn(-c4ccccc4)cc3C=O)nn2)cc1	6.5 (≈ 14 µM)	6.5 (≈ 14 µM)	6.5 (≈ 14 µM)	6.5 (≈ 14 µM)	6.5 (≈ 14 µM)					
Cc1ccc(OCc2cn(Cc3ccccc3)nn2)c(-c2nn(-c3ccccc3)cc2C=O)c1	5.5 (≈ 12.2 µM)	5.5 (≈ 12.2 µM)	5.5 (≈ 12.2 µM)	5.5 (≈ 12.2 µM)	5.5 (≈ 12.2 µM)					
Cc1cc(OCc2cn(Cc3ccc(Cl)cc3)nn2)cc2oc(=O)ccc12										MIC [6]: 2 µg/mL (≈ 5.24 µM); MIC [7]: 2 µg/mL (≈ 5.24 µM); MIC [8]: 2 µg/mL (≈ 5.24 µM); MIC [9]: 2 µg/mL (≈ 5.24 µM); MIC [10]: 2 µg/mL (≈ 5.24 µM); MIC [11]: 2 µg/mL (≈ 5.24 µM); MIC [12]: 2 µg/mL (≈ 5.24 µM); MIC [13]: 2 µg/mL (≈ 5.24 µM); MIC [14]: 2 µg/mL (≈ 5.24 µM)
O=Cc1cn(-c2ccccc2)nc1-c1ccccc1OCc1cn(Cc2cccc(Cl)c2)nn1	5.5 (≈ 11.7 µM)	5.5 (≈ 11.7 µM)	5.5 (≈ 11.7 µM)	5.5 (≈ 11.7 µM)	5.5 (≈ 11.7 µM)					
O=Cc1cn(-c2ccccc2)nc1-c1ccccc1OCc1cn(Cc2ccc(C(=O)O)cc2)nn1	5.5 (≈ 11.5 µM)	5.5 (≈ 11.5 µM)	5.5 (≈ 11.5 µM)	5.5 (≈ 11.5 µM)	5.5 (≈ 11.5 µM)					
O=Cc1cn(-c2ccccc2)nc1-c1ccccc1OCc1cn(Cc2ccc(Br)cc2)nn1	5.5 (≈ 10.7 µM)	5.5 (≈ 10.7 µM)	5.5 (≈ 10.7 µM)	5.5 (≈ 10.7 µM)	5.5 (≈ 10.7 µM)					
O=c1cc(OCc2cn(Cc3cccc([N+](=O)[O-])c3)nn2)c2ccccc2o1										MIC [6]: 2 µg/mL (≈ 5.29 µM); MIC [7]: 2 µg/mL (≈ 5.29 µM); MIC [8]: 2 µg/mL (≈ 5.29 µM); MIC [9]: 2 µg/mL (≈ 5.29 µM); MIC [10]: 2 µg/mL (≈ 5.29 µM); MIC [11]: 2 µg/mL (≈ 5.29 µM); MIC [12]: 2 µg/mL (≈ 5.29 µM); MIC [13]: 2 µg/mL (≈ 5.29 µM); MIC [14]: 2 µg/mL (≈ 5.29 µM)
O=C(N/N=C/c1cn(-c2ccccc2)nc1-c1ccc(Br)cc1)c1cccc(-n2cc(-c3ccccc3)nn2)c1						2 (≈ 3.4 µM)	2 (≈ 3.4 µM)	2 (≈ 3.4 µM)	2 (≈ 3.4 µM)	
O=C(N/N=C/c1cn(-c2ccccc2)nc1-c1ccccc1)c1cccc(-n2cc(-c3ccccc3)nn2)c1						8 (≈ 15.7 µM)	8 (≈ 15.7 µM)	8 (≈ 15.7 µM)	8 (≈ 15.7 µM)	
